This is an account of results in patent US20060234390A1, “Process for determining target function and identifying drug leads” (priority 2002, published 2006).

The target in test [1] is T1, P38 MAP kinase (Homo sapiens, UniProt Q16539).
T1 construct: purchased Sigma
As to the kind of experiment: HPLC based Chemical Array binding assay (protein-bound vs free compounds, UV and mass spectrum). Particulars: for identity of the compound extracted from the mixture and released from the protein (mass spectrum): 5 uM P38 MAP kinase + 5 uM mixture of Quinine and 86002. As for the experimental part:
(§1) Drug-like chemical compounds representing a collection of drug-like chemical scaffolds (Sigma-Aldrich, ICN, Calbiochem) were weighed and mixed to a final concentration of 20 uM each in 50 mM ammonium acetate pH 7, 10% methanol. 1 uM to 20 uM tubulin or P38 MAP kinase (Sigma) were dispensed into HPLC low volume sample cuvettes (Waters) and mixed with 0.5 uM to 20 uM compounds. After mixing and a 15 minute 37° C. incubation, the cuvettes were placed on ice and injected into the HPLC (Waters 2690) using an autoinjector (Waters) onto a 150 mm×2.1 mm ID Pinkerton GFF II column (Regis Technologies) for dual size exclusion and phase separation with a 50 mM ammonium acetate, 10% methanol running buffer.
(§2) We optimized the column dimensions and the choice of resin to maximize the separation of the compounds bound to the protein targets from the unbound compounds. Resins which elute protein in the void volume and small column diameters and lengths which minimize the void volume were used. Such columns minimize the amount of dilution of the protein sample and minimize the time required for each assay, thereby minimizing the amount of bound compound that dissociates from the protein (as governed by the Koff rate). […] A number of HPLC columns, including the Regis 150 mm×2.1 mm GFF II column, a 1.0 mm×100 mm YMC Diol column, a 2.1 mm×150 mm Phenomonex Polyhydroxymethacrylate (Polysep) column, and a Jordi 2.1×150 mm Divinyl Benzene column, were tested. Similarly, other running buffers were tested in which the salt and methanol concentration were varied, and the ratio of protein target to small compounds in the binding reaction was varied from 1000:1 to 1:1000. Resins representative of different classes were tested for their ability to separate the protein fraction from the drug-like small molecule compounds, and to minimize the cycle time for all of the compounds to elute from the column. These characteristics of the columns are determined by surface properties and limitations on flow rates due to resins collapsing under backpressure. […] In applications where a longer cycle time (e.g., over 10 minutes per run) is acceptable, any of the above columns or a series of the above columns may be used.
(§3) For shorter cycle times, other columns may be used.

Test [2] has as its target T1, P38 MAP kinase. The settings on record: stated as a known property of the ligand; cited from earlier work.
A further test deals with tubulin. The test can be described thus: HPLC based Chemical Array binding assay (protein-bound vs free compounds, UV and mass spectrum). Particulars: tubulin 0, 5 and 20 uM; 10 compound mixture, 0.5 uM each; GFF II column. As for the experimental part:
as §1, §2, §3

[3] abbreviates: P38 0, 2.5, 5 and 10 uM, 86002 and quinine 5 uM each, Diol column.

“Also recorded” adds a separate entry of the source.

T1 sequence (Q16539 whole entry): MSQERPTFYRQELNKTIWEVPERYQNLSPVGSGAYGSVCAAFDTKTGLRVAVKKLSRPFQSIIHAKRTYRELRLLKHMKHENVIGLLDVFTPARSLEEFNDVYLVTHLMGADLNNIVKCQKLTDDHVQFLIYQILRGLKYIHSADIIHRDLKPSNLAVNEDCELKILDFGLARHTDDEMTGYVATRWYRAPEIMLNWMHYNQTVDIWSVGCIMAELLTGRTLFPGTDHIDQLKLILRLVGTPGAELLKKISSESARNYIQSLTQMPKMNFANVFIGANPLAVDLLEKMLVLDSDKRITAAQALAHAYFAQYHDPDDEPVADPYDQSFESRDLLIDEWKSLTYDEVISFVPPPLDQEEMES

Regarding `C=C[C@H]1CN2CC[C@H]1C[C@H]2[C@H](O)c1ccnc2ccc(OC)cc12.Cl` [quinine, quinine monohydrochloride], at P38 MAP kinase [1], the “identity of the compound extracted from the mixture and released from the protein (mass spectrum)” value was “not quinine”. Further, at P38 MAP kinase [1] (setting [3]), the “reduction of the free compound UV peak with increasing P38 MAP kinase” value was “negligible reduction”.

With `Fc1ccc(-c2nc3n(c2-c2ccncc2)CCS3)cc1` [SKB86002], the “affinity for the P38 MAP kinase protein target” value on P38 MAP kinase [2] is listed as “micromolar affinity”. The “reduction of the free compound UV peak with increasing tubulin” value with tubulin is recorded as “negligible reduction”. Moreover, the “mass spectrum of the collected protein fraction compared with the standard” value on P38 MAP kinase [1] (5 uM P38 MAP kinase + 5 uM 86002, Diol column) was “corresponded to the 86002 standard”. For the same molecule, the “identity of the compound extracted from the mixture and released from the protein (mass spectrum)” value on P38 MAP kinase [1] is reported as “identified as 86002”. The “reduction of the free compound UV peak with increasing P38 MAP kinase” value on P38 MAP kinase [1] (setting [3]) is on record as “concentration dependant reduction”; at P38 MAP kinase [1] (P38 0, 3.5 and 5 uM, 10 compound mixture, 0.5 uM each, GFF II column), “concentration dependent reduction”. For the same molecule, on P38 MAP kinase [1] (P38 2 uM, 100 compound mixture, 20 uM each, GFF II column), the “level of the characteristic peak in the mass spectrum of the protein fraction” value is “binds and extracts; also recorded: at a level far higher than other peaks”. The “level of the characteristic peaks in the mass spectrum of the protein fraction” value on P38 MAP kinase [1] (P38, 10 compound mixture, 0.5 uM each, GFF II column) is “at a level far higher than other peaks”.
